Source: US20090099195A1 (ASTRAZENECA AB, priority 2007, published 2009)

Key:
[1] = molecular target: T1, hP2X3 (human Purinergic P2X receptors subtype 3), clone B (Homo sapiens, UniProt P56373); assay: hP2X3 FLIPR calcium (Fluo-4) antagonist assay, clone B; settings: Human P2X3 FLIPR Clone B IC50 (nM), RLE cells expressing hP2X3 clone B (NM_002559); agonist 500 nM α,β-methylene-ATP
T1 sequence (P56373 1-397): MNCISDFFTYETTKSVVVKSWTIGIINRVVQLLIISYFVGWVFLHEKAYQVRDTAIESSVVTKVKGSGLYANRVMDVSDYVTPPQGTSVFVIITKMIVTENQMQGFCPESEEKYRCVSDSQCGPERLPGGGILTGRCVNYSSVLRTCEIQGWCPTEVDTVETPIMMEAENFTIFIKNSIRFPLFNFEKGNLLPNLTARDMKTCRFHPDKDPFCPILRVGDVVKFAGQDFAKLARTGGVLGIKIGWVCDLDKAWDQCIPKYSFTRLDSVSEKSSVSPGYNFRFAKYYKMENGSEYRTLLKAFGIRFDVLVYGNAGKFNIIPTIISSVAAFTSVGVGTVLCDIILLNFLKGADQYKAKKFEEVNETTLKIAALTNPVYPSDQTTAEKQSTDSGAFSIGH

[2] = molecular target: T2, hP2X3 (human Purinergic P2X receptors subtype 3), clone A (Homo sapiens, UniProt P56373); assay: hP2X3 FLIPR calcium (Fluo-4) antagonist assay, clone A; settings: Human P2X3 FLIPR Clone A Mean IC50 (nM), RLE cells expressing hP2X3 clone A (AB016608); agonist 500 nM α,β-methylene-ATP
T2 sequence (P56373 1-397): T1 sequence (P56373 1-397)
Description: The assay used a calcium indicator dye (Fluo-4) that emits fluorescence, the intensity of which is related to the concentration of calcium that entered the cell when P2X3 was activated and the channel opened. Activation of hP2X3 or rat P2X3 and rat P2X2/3 (from the coexpression of rat P2X3 and rat P2×2) is elicited the by P2X3 agonist α,β methylene-ATP (Sigma M6517), and the resulting fluorescence is measured with a FLIPR II™ instrument (Molecular Devices). Compounds are tested for their ability to inhibit the agonist-induced fluorescent signal.
For the rat P2X2/3 HEK-TREX cells, induction of the rat P2X3 expression is used to generate the rat P2X2/3 channels in HEK-TREX cells and performed by addition of 1 μg/mL tetracycline (Invitrogen) 24 h prior to compounds testing to the HEK-TREX expressing the rat P2X2 constitutively. On the day of the experiment, the cells and test compounds are prepared as follows. […] After preparing the compounds, the medium is removed from the cell plates by inversion. A loading solution of 30 μL assay buffer containing 4 μM of the calcium indicator dye FLUO-4 AM (Molecular Probes F14202) is added to each well using a Multidrop (Labsystems). […] The incubation is terminated by washing the cells four times in assay buffer using a Skatron Embla (Molecular Devices), and 25 μL of assay buffer was left in each well. Cell plates are then transferred to the FLIPR. Experiments are initiated by measuring a baseline fluorescence reading for 10 seconds, followed by the addition of 12.5 μL of cpds and data sampling for a total 280 seconds. The experiments are terminated by addition of 12.5 μL of a reference agonist (500 nM α,β-methylene-ATP) or buffer, producing a final assay volume of 50 μL followed by data sampling for an additional 280 seconds.
In P2X3 antagonist experiments (human and rat assays) data are analysed as normalised maximal peak fluorescence monitored following agonist addition and calculated as percent of relative fluorescent counts from control agonist. The dose-response antagonist inhibition curves are analyzed in a 4-parameter sigmoidal fit using a non-linear curve-fitting program (XLfit version 5.0.6, ID Business Solutions Limited, Guildford, UK).

[3] = molecular target: T3, rat P2X2/3 (rat P2X3 co-expressed with rat P2X2) (Rattus norvegicus, UniProt P49653+P49654); assay: rat P2X2/3 FLIPR calcium (Fluo-4) antagonist assay; settings: Rat P2X2/3 FLIPR Mean IC50 (nM), HEK-TREX cells, tetracycline-induced rat P2X3 with constitutive rat P2X2; agonist 500 nM α,β-methylene-ATP
T3 sequence (P49654 1-397): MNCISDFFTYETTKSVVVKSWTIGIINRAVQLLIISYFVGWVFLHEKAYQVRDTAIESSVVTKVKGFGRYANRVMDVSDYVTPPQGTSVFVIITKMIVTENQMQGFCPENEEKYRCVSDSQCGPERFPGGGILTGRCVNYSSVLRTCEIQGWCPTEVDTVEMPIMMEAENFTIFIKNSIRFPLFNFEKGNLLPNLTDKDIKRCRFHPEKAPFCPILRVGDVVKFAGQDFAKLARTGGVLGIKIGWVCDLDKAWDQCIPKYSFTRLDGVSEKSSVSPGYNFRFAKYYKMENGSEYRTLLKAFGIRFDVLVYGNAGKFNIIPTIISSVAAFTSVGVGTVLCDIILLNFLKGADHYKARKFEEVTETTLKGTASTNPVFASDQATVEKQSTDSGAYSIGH
T3 sequence (P49653 1-472): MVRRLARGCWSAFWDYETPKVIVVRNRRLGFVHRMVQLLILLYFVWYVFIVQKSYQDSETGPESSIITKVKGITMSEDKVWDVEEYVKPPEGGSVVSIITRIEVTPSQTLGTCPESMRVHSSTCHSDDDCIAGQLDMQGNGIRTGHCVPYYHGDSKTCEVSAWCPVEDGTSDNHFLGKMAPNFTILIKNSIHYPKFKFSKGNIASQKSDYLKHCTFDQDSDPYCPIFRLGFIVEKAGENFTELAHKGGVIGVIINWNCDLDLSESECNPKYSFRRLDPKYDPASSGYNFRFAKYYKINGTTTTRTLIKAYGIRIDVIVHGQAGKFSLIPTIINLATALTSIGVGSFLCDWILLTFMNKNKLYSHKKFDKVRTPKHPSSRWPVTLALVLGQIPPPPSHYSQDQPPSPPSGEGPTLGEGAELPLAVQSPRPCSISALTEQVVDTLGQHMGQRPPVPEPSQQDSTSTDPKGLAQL

Structure (SMILES)	IC50 [1]	IC50 [2]	IC50 [3]
CC(C)N1Cc2c(NC(C)(C)Cc3ccc(Cl)cc3)nc(N3CCN(C)C(=O)C3)nc2C1=O [Example 69, 4-{[2-(4-chlorophenyl)-1,1-dimethylethyl]amino}-6-isopropyl-2-(4-methyl-3-oxopiperazin-1-yl)-5,6-dihydro-7H-pyrrolo[3,4-d]pyrimidin-7-one]	140 nM	86.2 nM	1920 nM
CC(=O)N1CCN(c2nc3c(c(N4CCCC4c4cc(C)cc(C)c4)n2)CN(C(C)C)C3=O)CC1 (centres unmarked) [Example 270, 4-(4-acetylpiperazin-1-yl)-2-[2-(3,5-dimethylphenyl)pyrrolidin-1-yl]-8-propan-2-yl-3,5,8-triazabicyclo[4.3.0]nona-2,4,10-trien-7-one]	340 nM	–	9910 nM
CCOc1ccc(C2CCCN2c2nc(N3CCN(C(C)=O)CC3)nc3c2CN(C(C)C)C3=O)cc1 (centres unmarked) [Example 272, 4-(4-acetylpiperazin-1-yl)-2-[2-(4-ethoxyphenyl)pyrrolidin-1-yl]-8-propan-2-yl-3,5,8-triazabicyclo[4.3.0]nona-2,4,10-trien-7-one]	270 nM	–	12900 nM
CC(=O)N1CCN(c2nc3c(c(N4CCCC4c4cnc5ccccc5c4)n2)CN(C(C)C)C3=O)CC1 (centres unmarked) [Example 274, 4-(4-acetylpiperazin-1-yl)-8-propan-2-yl-2-(2-quinolin-3-ylpyrrolidin-1-yl)-3,5,8-triazabicyclo[4.3.0]nona-1,3,5-trien-7-one]	170 nM	–	768 nM
CCC(c1ccccc1)C1CCCN1c1nc(N2CCN(C(C)=O)CC2)nc2c1CN(C(C)C)C2=O (centres unmarked) [Example 275, 4-(4-acetylpiperazin-1-yl)-2-[2-(1-phenylpropyl)pyrrolidin-1-yl]-8-propan-2-yl-3,5,8-triazabicyclo[4.3.0]nona-2,4,10-trien-7-one]	760 nM	–	10300 nM
CC(=O)N1CCN(c2nc3c(c(N4CCCC4c4ccc5ncccc5c4)n2)CN(C(C)C)C3=O)CC1 (centres unmarked) [Example 281, 4-(4-acetylpiperazin-1-yl)-8-propan-2-yl-2-(2-quinolin-6-ylpyrrolidin-1-yl)-3,5,8-triazabicyclo[4.3.0]nona-1,3,5-trien-7-one]	140 nM	–	11400 nM

Continued, values first:

IC50 [1]	IC50 [2]	IC50 [3]	Structure (SMILES)
67 nM	–	3430 nM	COc1ccc(CC2CCCN2c2nc(N3CCN(C(C)=O)CC3)nc3c2CN(C(C)C)C3=O)cc1 (centres unmarked) [Example 286, 2-(4-acetylpiperazin-1-yl)-6-isopropyl-4-[2-[(4-methoxyphenyl)methyl]pyrrolidin-1-yl]-5H-pyrrolo[3,4-d]pyrimidin-7-one]
71 nM	–	8730 nM	CC(=O)N1CCN(c2nc3c(c(N4CCC[C@@H]4C(=O)Oc4ccccc4)n2)CN(C(C)C)C3=O)CC1 [Example 304, phenyl (2R)-1-[4-(4-acetylpiperazin-1-yl)-7-oxo-8-propan-2-yl-3,5,8-triazabicyclo[4.3.0]nona-1,3,5-trien-2-yl]pyrrolidine-2-carboxylate]
